Data reported in patent US20120171123A1, “USES AND COMPOSITIONS FOR TREATMENT OF RHEUMATOID ARTHRITIS” (priority 2006, published 2012).
Like-named read-outs stand apart in the source and are kept apart here.

Legend:
[1] = tested on: patients with RA who had failed prior treatment with infliximab; assay: Adalimumab after failed infliximab: TJC28 and SJC28; type: in vivo, human; conditions: 16 wk
Description: Patients eligible to participate in the study included those with long-standing, moderate to severe RA who had terminated infliximab therapy because of lack or loss of efficacy and/or intolerance/side effects. […] Follow-up visits for safety and efficacy monitoring were scheduled at 2, 8, and 16 weeks. […] Efficacy parameters included TJC28 and SJC28; DAS28; ACR20, ACR50 Response; Moderate EULAR response; and HAQ. Subgroup analysis by reason for discontinuation included: • in case of discontinuation due to lack or loss of efficacy, patients were counted in the corresponding group regardless of additional cause of intolerance. • The subgroup “Discontinuation due to intolerance” was exclusive.

[2] = tested on: patients with long-standing RA; assay: Study 4: tender and swollen joint counts; type: in vivo, human
Method: At the last visit, 24% of participants had 0 tender joints and 21% of participants had 0 swollen joints.
Efficacy outcomes were evaluated as observed data: DAS28; ACR 20/50/70; Tender Joint Count (TJC); Swollen Joint Count (SJC); and HAQ Disability Index. Baseline demographics and disease characteristics were similar in both Study 4 and Study 5 consistent with moderate to severe RA, as shown below in Table 64: […]

[3] = tested on: patients with long-standing RA who had inadequate responses to MTX; assay: Study 1: tender and swollen joint counts; type: in vivo, human
Method: Two readers assessed X-rays performed at baseline (start of RCT), 1 year (end of RCT), and 3 years (post 2 years OLE). Changes from baseline in Total Sharp Score (TSS), Joint Erosions (JE), and Joint Space Narrowing (JSN) were calculated. ACR 20, 50, and 70 response rates, as well as TJC and SJC, were also measured.

patients with RA = tested on: patients with RA
Description: The ADA pivotal trials were Study I, Study I (both ADA+MTX in MTX partial responders), Study 2 (ADA monotherapy) and Study K (ADA added to standard of care). Patients from the Phase I-III controlled clinical trials of ADA in RA, including the pivotals, were allowed to receive ADA as long-term, open-label therapy in 3 extension studies: 1) Study 18, for ADA monotherapy in the EU, 2) Study 20, for ADA with MTX in NA, and 3) the extension of Study 1, in NA. […] Adverse events are classified as “serious” adverse events based on the following regulatory criteria: fatal, life-threatening, requires inpatient hospitalization, prolongs hospitalization, causes congenital anomaly/birth defect, results in persistent or significant disability/incapacity, an important medical event that jeopardizes the patient and requires medical/surgical intervention to prevent another serious outcome. Serious infections (SI) are defined as “serious adverse events” that are coded under “Infections and Infestations” in the MedDRA coding system. […] 1, 2005 were analyzed in the report described herein. Non-serious infections were not included in this analysis. Serious infections reported during these trials were tabulated and rates were calculated as events per patient-year (E/PY). […] Rates of SI were determined for subsets of patients who, at the time of the SI, had diabetes, or were using concomitant steroids or concomitant MTX.

[4] = tested on: patients with moderate to severe rheumatoid arthritis; assay: Study C: HAQ; type: in vivo, human
Method: (§1) The Canadian Adalimumab Clinical Trial (Study C) was an open-label, multi-center, Phase IIIb study conducted in Canada. […] Efficacy and safety were assessed at baseline, 4, 8, and 12 weeks. Efficacy assessments included tender joint count (TJC 0-28), swollen joint count (SJC 0-28), Disease Activity Score 28 (DAS28), Health Assessment Questionnaire (HAQ), and EULAR response. This was a preliminary analysis of 236 patients. The sample size for each outcome variable is based on the data available at the time of the analysis. The data from this preliminary analysis were compared with the Week 12 data from Study A (N=2008).

[5] = tested on: patients with moderate to severe rheumatoid arthritis; assay: Study C (Canadian open-label, adalimumab 40 mg sc eow add-on): TJC/SJC; type: in vivo, human
Method: as §1

[6] = all reasons for infliximab withdrawal (N=37)
[7] = loss of response to infliximab (N=19)
[8] = no response to infliximab (N=13)
[9] = open-label trials, N = 2504, 7951 PY
[10] = Study C, 12 weeks, preliminary analysis

Substance: adalimumab: human anti-TNF mAb (HUMIRA, Abbott Laboratories), described in U.S. Pat. No. 6,090,382 as D2E7
- Change in SJC (0-28), mean change from baseline [1, 6]: −5.2
- Change in TJC (0-28), mean change from baseline [1, 6]: −7.4
- Change in SJC (0-28), mean change from baseline ([1]; infliximab intolerance (N=5)): −7.8
- Change in TJC (0-28), mean change from baseline ([1]; infliximab intolerance (N=5)): −10.0
- Change in SJC (0-28), mean change from baseline [1, 7]: −6.1
- Change in TJC (0-28), mean change from baseline [1, 7]: −8.2
- Change in SJC (0-28), mean change from baseline [1, 8]: −2.8
- Change in TJC (0-28), mean change from baseline [1, 8]: −5.1
- SJC (0-66), % change of mean clinical improvement from baseline ([2]; 6 months): 58%
- TJC (0-68), % change of mean clinical improvement from baseline ([2]; 6 months): 64%
- SJC (0-66), % change of mean clinical improvement from baseline ([2]; 12 months): 67%
- TJC (0-68), % change of mean clinical improvement from baseline ([2]; 12 months): 69%
- SJC (0-66), % change of mean clinical improvement from baseline ([2]; 24 months): 69%
- TJC (0-68), % change of mean clinical improvement from baseline ([2]; 24 months): 72%
- SJC (0-66), % change of mean clinical improvement from baseline ([2]; 36 months): 68%
- TJC (0-68), % change of mean clinical improvement from baseline ([2]; 36 months): 75%
- SJC (0-66), % change of mean clinical improvement from baseline ([2]; 48 months): 61%
- TJC (0-68), % change of mean clinical improvement from baseline ([2]; 48 months): 78%
- median number of swollen joints ([2]; end of four years): 3
- median number of tender joints ([2]; end of four years): 2
- participants with 0 swollen joints ([2]; last visit (n=846 analysis)): 21%
- participants with 0 tender joints ([2]; last visit (n=846 analysis)): 24%
- TJC or SJC ([3]; 36 months): 5-7
- patients with 0 swollen joints ([3]; last visit): 22%
- patients with 0 tender joints ([3]; last visit): 21%
- serious infection rate (patients with RA; 146 patients with diabetes, 427 PY): 0.049 /PY
- patients who experienced a serious infection (patients with RA; 285 of 2504 patients): 11%
- serious infection rate (patients with RA; 2504 patients, 7951 PY, to Mar. 1, 2005): 0.045 /PY
- rate of serious infections (patients with RA; all patients): 4.5 events per 100 PY
- serious infection rate (patients with RA; blinded controlled phases of pivotal trials, 1380 patients): 0.042 /PY
- Pneumonia (patients with RA; human, in vivo): 64 events
- cellulitis (patients with RA; human, in vivo): 29 events
- Septic arthritis (patients with RA; open-label trials): 37 events
- Patients with serious infections, % (patients with RA; [9]): 11.4%
- Serious infection Cellulitis: number of events E (patients with RA; [9]): 29
- Serious infection Cellulitis: rate (E/100PY) (patients with RA; [9]): 0.4 E/100PY
- Serious infection Pneumonia: number of events E (patients with RA; [9]): 64
- Serious infection Pneumonia: rate (E/100PY) (patients with RA; [9]): 0.8 E/100PY
- Serious infection Septic Arthritis: number of events E (patients with RA; [9]): 37
- Serious infection Septic Arthritis: rate (E/100PY) (patients with RA; [9]): 0.5 E/100PY
- rate of serious infections (patients with RA; with diabetes mellitus): 4.9 events per 100 PY
- rate of serious infections (patients with RA; without diabetes mellitus): 4.5 events per 100 PY
- improvement in HAQ score ([4]; 12 weeks): −0.55
- patients achieving HAQ<0.5 ([4]; 12 weeks): 28%
- HAQ (mean), change from baseline [4, 10]: −0.55 (122)
- mean HAQ ([4]; week 12 (baseline 1.4)): 0.86
- SJC (0-28), change from baseline, median [5, 10]: −7 (123)
- TJC (0-28), change from baseline, median [5, 10]: −10 (123)
- mean SJC ([5]; week 12 (baseline 14)): 7.4
- mean TJC ([5]; week 12 (baseline 17)): 8.1
